In ChEMBL document CHEMBL4627415, “Design and Structural Optimization of Dual FXR/PPARδ Activators” (J Med Chem, 2020):
pEC50: −log10 of the molar value. Calls of active or inactive are those of the source. No cut-off for these calls is given here.

Assays:
[1] = target: T1, Bile acid receptor (Homo sapiens) (UniProt Q96RI1); test: Activation of FXR in human HepG2 cells assessed as increase in SHP mRNA expression at 3 uM incubated for 8 hrs by quantitative real time PCR analysis; format: cell-based
T1 sequence (whole entry): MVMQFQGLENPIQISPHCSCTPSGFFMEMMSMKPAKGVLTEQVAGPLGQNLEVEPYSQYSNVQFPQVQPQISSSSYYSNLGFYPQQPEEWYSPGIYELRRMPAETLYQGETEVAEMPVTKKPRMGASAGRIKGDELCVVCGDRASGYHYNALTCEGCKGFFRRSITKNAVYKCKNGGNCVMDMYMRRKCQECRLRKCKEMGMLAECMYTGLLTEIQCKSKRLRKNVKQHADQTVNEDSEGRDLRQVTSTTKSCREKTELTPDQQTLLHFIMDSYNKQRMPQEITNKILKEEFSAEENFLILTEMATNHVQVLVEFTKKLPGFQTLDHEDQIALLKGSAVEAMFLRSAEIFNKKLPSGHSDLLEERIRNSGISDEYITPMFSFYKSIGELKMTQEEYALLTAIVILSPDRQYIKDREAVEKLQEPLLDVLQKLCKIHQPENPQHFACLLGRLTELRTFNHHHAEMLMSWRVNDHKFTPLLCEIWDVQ

Bile acid receptor = target: T2, Bile acid receptor (Homo sapiens, UniProt Q96RI1); test: Activation of human FXR LBD expressed in HEK293T cells assessed as induction of receptor activation incubated for 12 to 14 hrs by luciferase reporter gene assay; format: cell-based, HEK-293T
T2 sequence (Q96RI1 whole entry): T1 sequence (whole entry)

[2] = target: T3, Peroxisome proliferator-activated receptor delta (Homo sapiens) (UniProt Q03181); test: Activation of human PPAR-delta LBD expressed in HEK293T cells assessed as induction of receptor activation at 10 uM incubated for 12 to 14 hrs by luciferase reporter gene assay; format: cell-based; settings: HEK-293T
T3 sequence (whole entry): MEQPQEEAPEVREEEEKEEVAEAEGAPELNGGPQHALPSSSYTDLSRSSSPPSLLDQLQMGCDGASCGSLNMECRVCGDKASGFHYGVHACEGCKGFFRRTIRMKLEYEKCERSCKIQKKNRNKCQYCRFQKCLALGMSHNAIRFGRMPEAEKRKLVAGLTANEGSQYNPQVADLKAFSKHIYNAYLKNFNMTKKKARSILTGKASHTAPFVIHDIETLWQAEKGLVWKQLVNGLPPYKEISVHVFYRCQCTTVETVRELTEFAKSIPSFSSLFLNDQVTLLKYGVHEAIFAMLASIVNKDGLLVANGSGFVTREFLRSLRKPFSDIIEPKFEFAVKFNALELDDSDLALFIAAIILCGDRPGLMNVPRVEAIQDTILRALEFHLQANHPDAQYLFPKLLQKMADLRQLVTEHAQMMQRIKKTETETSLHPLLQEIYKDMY

[3] = target: T4, Oxysterols receptor LXR-alpha (Homo sapiens) (UniProt Q13133); test: Activation of human LXR-alpha LBD expressed in HEK293T cells assessed as induction of receptor activation at 10 uM incubated for 12 to 14 hrs by luciferase reporter gene assay; format: cell-based; settings: HEK-293T
T4 sequence (whole entry): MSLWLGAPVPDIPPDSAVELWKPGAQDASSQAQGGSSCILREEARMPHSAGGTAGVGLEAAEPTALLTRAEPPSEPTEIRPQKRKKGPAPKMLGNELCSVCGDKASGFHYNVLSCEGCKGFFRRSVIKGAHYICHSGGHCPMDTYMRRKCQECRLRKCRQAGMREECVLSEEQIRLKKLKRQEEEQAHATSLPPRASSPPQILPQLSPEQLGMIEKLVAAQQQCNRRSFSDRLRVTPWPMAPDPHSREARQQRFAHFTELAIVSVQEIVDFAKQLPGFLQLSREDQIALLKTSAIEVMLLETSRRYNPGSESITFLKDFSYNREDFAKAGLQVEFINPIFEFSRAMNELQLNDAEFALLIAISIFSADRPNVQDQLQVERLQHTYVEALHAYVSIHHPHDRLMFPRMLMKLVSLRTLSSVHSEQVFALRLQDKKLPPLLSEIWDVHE

[4] = target: T3, Peroxisome proliferator-activated receptor delta (Homo sapiens); test: Activation of human PPAR-delta LBD expressed in HEK293T cells assessed as induction of receptor activation at 1 to 3 uM incubated for 12 to 14 hrs by luciferase reporter gene assay; format: cell-based; settings: HEK-293T
[5] = target: T5, Retinoic acid receptor RXR-alpha (Homo sapiens) (UniProt P19793); test: Activation of human RXR-alphaLBD expressed in HEK293T cells assessed as induction of receptor activation at 10 uM incubated for 12 to 14 hrs by luciferase reporter gene assay; format: cell-based; settings: HEK-293T
T5 sequence (whole entry): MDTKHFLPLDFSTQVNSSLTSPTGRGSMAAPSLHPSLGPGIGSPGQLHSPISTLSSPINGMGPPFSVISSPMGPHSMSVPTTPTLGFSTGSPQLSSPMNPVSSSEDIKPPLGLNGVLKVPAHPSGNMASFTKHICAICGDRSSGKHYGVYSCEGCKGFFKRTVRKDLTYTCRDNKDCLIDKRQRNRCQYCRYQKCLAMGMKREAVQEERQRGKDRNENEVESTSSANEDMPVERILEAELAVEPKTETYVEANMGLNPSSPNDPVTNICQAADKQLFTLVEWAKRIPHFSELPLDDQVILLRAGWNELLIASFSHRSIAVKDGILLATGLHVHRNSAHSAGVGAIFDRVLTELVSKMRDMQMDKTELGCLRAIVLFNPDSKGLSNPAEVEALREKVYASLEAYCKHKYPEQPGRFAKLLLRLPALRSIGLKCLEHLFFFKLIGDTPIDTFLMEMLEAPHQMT

[6] = target: T6, Peroxisome proliferator-activated receptor delta (Mus musculus) (UniProt P35396); test: Activation of PPARD in mouse C2C12 cells assessed as increase PCK mRNA expression at 3 uM incubated for 8 hrs by quantitative real time PCR analysis; format: cell-based
T6 sequence (whole entry): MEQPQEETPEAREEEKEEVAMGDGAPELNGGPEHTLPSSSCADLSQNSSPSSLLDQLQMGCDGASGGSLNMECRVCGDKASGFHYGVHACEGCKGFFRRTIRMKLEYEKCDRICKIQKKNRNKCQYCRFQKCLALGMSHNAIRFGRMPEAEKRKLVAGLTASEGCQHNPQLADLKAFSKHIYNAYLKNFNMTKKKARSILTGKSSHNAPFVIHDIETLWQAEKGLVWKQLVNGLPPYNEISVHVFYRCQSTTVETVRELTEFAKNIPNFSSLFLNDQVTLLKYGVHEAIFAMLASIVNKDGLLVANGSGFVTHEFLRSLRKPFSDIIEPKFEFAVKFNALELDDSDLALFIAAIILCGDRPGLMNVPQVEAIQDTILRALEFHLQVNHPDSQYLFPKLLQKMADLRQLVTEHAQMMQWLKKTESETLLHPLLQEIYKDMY

[7] = target: T7, Peroxisome proliferator-activated receptor delta (Homo sapiens, UniProt Q03181); test: Activation of human PPAR-delta LBD expressed in HEK293T cells assessed as induction of receptor activation incubated for 12 to 14 hrs by luciferase reporter gene assay; format: cell-based, HEK-293T
T7 sequence (Q03181 whole entry): T3 sequence (whole entry)

HepG2 = test: Toxicity in human HepG2 cells assessed as reduction in cell viability up to 100 uM incubated for 48 hrs by WST1 assay; format: cell-based; settings: hepg2, 48 h

Activity [1]: Active
pEC50 (Bile acid receptor): 6.03
Activity [2]: Active
Activity [3]: inactive
Activity [4]: Active
Activity [5]: inactive
Activity [6]: Active
pEC50 [7]: 5.82
Structure (SMILES): CC(C)c1onc(-c2c(Cl)cccc2Cl)c1COc1ccc(CNc2ccc(CC(=O)O)cc2)c(Cl)c1
Activity (HepG2): Non-Toxic
